Counter-ions that a name gives are not always drawn. Like-named read-outs stand apart in the source and are kept apart here.
Experiments:
[1] = molecular target: T1, human p38 kinase alpha (Homo sapiens, UniProt Q16539); assay: p38 kinase in vitro assay, phosphorylation of biotinylated PHAS-I with gamma 32P-ATP; assay type: biochemical
T1 construct: The coding region of the human p38a cDNA was obtained by PCR-amplification from RNA isolated from the human monocyte cell line THP.1; GST (N); made in house; host or cells: E. coli DH10B
T1 sequence (Q16539 whole entry): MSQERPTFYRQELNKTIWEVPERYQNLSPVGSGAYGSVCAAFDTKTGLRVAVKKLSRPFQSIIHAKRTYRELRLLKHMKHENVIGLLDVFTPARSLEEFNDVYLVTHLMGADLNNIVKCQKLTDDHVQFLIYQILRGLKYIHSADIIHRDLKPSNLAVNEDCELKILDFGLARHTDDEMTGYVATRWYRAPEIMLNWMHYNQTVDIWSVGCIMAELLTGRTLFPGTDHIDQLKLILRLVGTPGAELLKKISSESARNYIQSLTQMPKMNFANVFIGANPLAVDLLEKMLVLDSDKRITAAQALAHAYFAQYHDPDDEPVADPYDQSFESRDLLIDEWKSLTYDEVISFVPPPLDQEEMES
How it was run: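 MKK6-activated human p38α phosphorylates biotinylated PHAS-I with γ-32P-ATP in 25 mM HEPES pH 7.5, 10 mM Mg acetate, 50 μM unlabeled ATP, 1% DMSO, 30 °C for 1 h or overnight. Compounds at 100–0.001 μM (10-fold steps, triplicate); substrate captured on streptavidin filter plates and counted by scintillation.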

[2] = test system: TNF-α; assay: Rat assay: LPS-challenged rats, serum TNF-α by ELISA; assay type: in vivo; settings: for inhibition in vivo at 5 mg/kg / inhibition in vivo at 1 mg/kg: Rattus norvegicus, po; for ratLPS/% Inh @20.0 (mg/kg): 20.0 mg/kg oral gavage; for inhibition in vivo at 1 mg/kg: 1.0 mg/kg oral gavage, read-out: ratLPS/% Inh @1.0 (mg/kg)
[3] = test system: human TNF; assay: TNF inhibition: human whole blood assay; assay type: cell-based; settings: Homo sapiens
Procedure: Human peripheral blood is obtained in heparinized tubes. A 190 μL aliquot of blood is placed in each well of a 96 well u-bottom plate. […] After one hour of incubation at 37° C., […] of lipopolysaccharide (Salmonella typhosa, Sigma) in phosphate buffered saline is added resulting in a final concentration of […]. After four to five hours of incubation at 37° C., the supernatants are harvested and assayed at 1:10 or 1:20 dilutions for human TNF using ELISA.

[4] = read-out: P38 alpha kinase IC50
[5] = 5 mpk oral gavage, 4 h before LPS challenge, read-out: Rat LPS Model % Inhibition @ dose @ predose time
[6] = TNF production, LPS-stimulated human whole blood, read-out: Human Whole Blood IC50
[7] = read-out: Rat LPS Model % Inhibition @ dose @ predose time
[8] = read-out: Human Whole Blood IC50, μM
[9] = 5.0 mg/kg oral gavage, 4 hours before LPS challenge, read-out: ratLPS/% Inh @5.0 (mg/kg)
[10] = TNF production, LPS-stimulated human whole blood, read-out: HWB IC50

| SMILES | IC50 [1, 4] | inhibition in vivo at 5 mg/kg [2, 5] | IC50 [3, 6] | IC50 ([1]; read-out: p38 alpha IC50) | inhibition in vivo at 5 mg/kg [2, 9] | IC50 [3, 10] | further results |
| --- | --- | --- | --- | --- | --- | --- | --- |
| CN(C)[C@H]1CC[C@@H](c2[nH]nc(-c3ccc(Cl)cc3)c2-c2ccncc2)CC1 [Example C-93, 5-cis-(4-N,N-DIMETHYLAMINOCYCLOHEXYL)-4-(4-PYRIDYL)-3-(4-CHLOROPHENYL)PYRAZOLE] | 0.009 µM | 50% | 0.38 µM | – | – | – | – |
| CC(C)N[C@H]1CC[C@@H](c2[nH]nc(-c3ccc(Cl)cc3)c2-c2ccncc2)CC1 [Example C-94, 5-[cis-4-N-(2-PROPYL)AMINOCYCLOHEXYL]-4-(4-PYRIDYL)-3-(4-CHLOROPHENYL)PYRAZOLE] | 0.02 µM | 73% | 0.27 µM | – | – | – | – |
| CS(=O)(=O)N[C@H]1CC[C@@H](c2[nH]nc(-c3ccc(Cl)cc3)c2-c2ccncc2)CC1 [Example C-97, 5-cis-[4-N-(METHYLSULFONYL)AMINOCYCLOHEXYL]-4-(4-PYRIDYL)-3-(4-CHLOROPHENYL)PYRAZOLE] | 0.025 µM | 21% | 3.83 µM | – | – | – | – |
| N[C@H]1CC[C@@H](c2[nH]nc(-c3ccc(F)cc3)c2-c2ccncc2)CC1 [Example C-98, 5-cis-(4-AMINOCYCLOHEXYL-4-(4-PYRIDYL)-3-(4-FLUOROPHENYL)PYRAZOLE] | 0.016 µM | 78% | 0.64 µM | – | – | – | – |
| CN(C)[C@H]1CC[C@@H](c2[nH]nc(-c3ccc(F)cc3)c2-c2ccncc2)CC1 [Example C-99, 5-(cis-4-N,N-DIMETHYLAMINOCYCLOHEXYL)-4-(4-PYRIDYL)-3-(4-FLUOROPHENYL)PYRAZOLE] | 0.062 µM | 36% | 0.38 µM | – | – | – | – |
| CC(C)N[C@H]1CC[C@@H](c2[nH]nc(-c3ccc(F)cc3)c2-c2ccncc2)CC1 [Example C-100, 5-cis-[4-N-(2-PROPYL)AMINOCYCLOHEXYL]-4-(4-PYRIDYL)-3-(4-FLUOROPHENYL)PYRAZOLE] | 0.027 µM | 44% | 0.27 µM | – | – | – | – |
| CN(C)[C@H]1CC[C@@H](c2[nH]nc(-c3cccc(Cl)c3)c2-c2ccncc2)CC1 [Example C-106, 5-cis-(4-N,N-DIMETHYLAMINOCYCLOHEXYL)-4-(4-PYRIDYL)-3-(3-CHLOROPHENYL)PYRAZOLE] | 0.026 µM | 23% | 0.44 µM | – | – | – | – |
| CC(=N)N1CCC(c2[nH]nc(-c3ccc(F)cc3)c2-c2ccncc2)CC1 [Example C-107] | – | – | – | – | – | – | IC50 ([1]; P38 alpha kinase IC50, μM): 0.014 µM; inhibition in vivo at 5 mg/kg [2, 7]: 11%; IC50 [3, 8]: 0.38 µM |
| N=C(N)N1CCC(c2[nH]nc(-c3ccc(F)cc3)c2-c2ccncc2)CC1 [Example C-108] | 0.02 µM | 0% | 0.73 µM | – | – | – | – |
| CS(=O)(=O)N1CCC(c2[nH]nc(-c3ccc(F)cc3)c2-c2ccncc2)CC1 [Example C-111] | 0.21 µM | 39% | 6.05 µM | – | – | – | – |
| COCC(=O)N1CCC(c2[nH]nc(-c3ccc(F)cc3)c2-c2ccncc2)CC1 [Example C-112] | 0.54 µM | 89% | 6.36 µM | – | – | – | – |
| CC(=O)N1CCC(c2[nH]nc(-c3ccc(F)cc3)c2-c2ccncc2)CC1 [Example C-113] | 0.082 µM | 77% | 2.72 µM | – | – | – | – |
| COCc1[nH]nc(-c2ccc(Cl)cc2)c1-c1ccncc1 [Example C-115, 5-(METHOXYMETHYL)-4-(4-PYRIDYL)-3-(4-CHLOROPHENYL)PYRAZOLE] | 0.042 µM | 39% | 10.2 µM | – | – | – | – |
| Nc1ccc(Cc2[nH]nc(-c3ccc(Cl)cc3)c2-c2ccncc2)cc1 [Example C-116, 5-(4-AMINOBENZYL)-4-(4-PYRIDYL)-3-(4-CHLOROPHENYL)PYRAZOLE] | 0.429 µM | 53% | 0.5 µM | – | – | – | – |
| CN(C)c1ccc(Cc2[nH]nc(-c3ccc(Cl)cc3)c2-c2ccncc2)cc1 [Example C-117] | 3.42 µM | 71% | 7.26 µM | – | – | – | – |
| CC(=O)Nc1ccc(Cc2[nH]nc(-c3ccc(Cl)cc3)c2-c2ccncc2)cc1 [Example C-118, 5-[4-(N-ACETYL)AMINOBENZYL]-4-(4-PYRIDYL)-3-(4-CHLOROPHENYL)PYRAZOLE] | 0.298 µM | 39% | > 25 µM | – | – | – | – |
| CC(C)(N)C(=O)NCc1[nH]nc(-c2ccc(F)cc2)c1-c1ccncc1 [Example C-120] | 0.7 µM | – | – | – | – | – | inhibition in vivo at 5 mg/kg [2, 7]: 26%; IC50 [3, 8]: 18.6 µM |

| SMILES | IC50 [1, 4] | inhibition in vivo at 5 mg/kg [2, 5] | IC50 [3, 6] | IC50 ([1]; read-out: p38 alpha IC50) | inhibition in vivo at 5 mg/kg [2, 9] | IC50 [3, 10] | further results |
| --- | --- | --- | --- | --- | --- | --- | --- |
| CN1CCC[C@H]1c1[nH]nc(-c2ccc(F)cc2)c1-c1ccncc1 [Example C-124, (S)-5-(N-METHYL-2-PYROLIDINYL)-4-(4-PYRIDYL)-3-(4-FLUOROPHENYL)PYRAZOLE] | 0.17 µM | 51% | 4.56 µM | – | – | – | – |
| CN1CCC[C@@H]1c1[nH]nc(-c2ccc(F)cc2)c1-c1ccncc1 [Example C-126, (R)-5-(N-METHYL-2-PYROLIDINYL)-4-(4-PYRIDYL)-3-(4-FLUOROPHENYL)PYRAZOLE] | 0.71 µM | 6% | > 25 µM | – | – | – | – |
| CN1CCC[C@@H](c2[nH]nc(-c3ccc(F)cc3)c2-c2ccncc2)C1 [Example C-128] | 0.09 µM | 63% | 2.22 µM | – | – | – | – |
| CC(C)(O)CCCc1[nH]nc(-c2ccc(F)cc2)c1-c1ccncc1 [Example C-133] | 0.16 µM | 55% | 4.54 µM | – | – | – | – |
| CC(=O)N1CCCC(c2[nH]nc(-c3ccc(F)cc3)c2-c2ccncc2)C1 (stereo not drawn) [Example C-138] | 0.28 µM | 26% | 0.68 µM | – | – | – | – |
| COCC(=O)N1CCCC(c2[nH]nc(-c3ccc(F)cc3)c2-c2ccncc2)C1 (stereo not drawn) [Example C-139] | 0.2 µM | 46% | 3.66 µM | – | – | – | – |
| COCC(=O)N1CCC(c2[nH]nc(-c3ccc(Cl)cc3)c2-c2ccncn2)CC1 [Example D-3, N-(2-Methoxyacetyl)-5-(4-piperidyl)-4-(4-pyrimidyl)-3-(4-chlorophenyl)pyrazole (fumarate salt)] | – | – | – | 0.095 µM | 88% | 0.46 µM | ratLPS/% Inh @20.0 (mg/kg) ([2]; 4 hours before LPS challenge): 91.0%; inhibition in vivo at 1 mg/kg ([2]; 4 hours before LPS challenge): 69% |
| CC(C)(O)C(=O)N1CCC(c2[nH]nc(-c3ccc(Cl)cc3)c2-c2ccncn2)CC1 [Example D-4, hydrochloride] | – | – | – | 0.91 µM | 83% | 1.55 µM | ratLPS/% Inh @20.0 (mg/kg) ([2]; 4 hours before LPS challenge): 99.0%; inhibition in vivo at 1 mg/kg ([2]; 4 hours before LPS challenge): 42.3% |
| C[C@H](O)C(=O)N1CCC(c2[nH]nc(-c3ccc(Cl)cc3)c2-c2ccncn2)CC1 [Example D-5, hydrochloride] | – | – | – | 0.14 µM | 78.5% | 4.09 µM | ratLPS/% Inh @20.0 (mg/kg) ([2]; 4 hours before LPS challenge): 83.0%; inhibition in vivo at 1 mg/kg ([2]; 4 hours before LPS challenge): 65% |
| C[C@@H](O)C(=O)N1CCC(c2[nH]nc(-c3ccc(Cl)cc3)c2-c2ccncn2)CC1 [Example D-6, hydrochloride] | – | – | – | 0.083 µM | 96% | 1.33 µM | ratLPS/% Inh @20.0 (mg/kg) ([2]; 4 hours before LPS challenge): 100%; inhibition in vivo at 1 mg/kg ([2]; 4 hours before LPS challenge): 82% |
| O=C([C@H](O)c1ccccc1)N1CCC(c2[nH]nc(-c3ccc(Cl)cc3)c2-c2ccncn2)CC1 [Example D-7, (R)-N-(2-Hydroxy-2-phenylacetyl)-5-(4-piperidyl)-4-(4-pyrimidyl)-3-(4-chlorophenyl)pyrazole] | – | – | – | 0.44 µM | 0% | > 25 µM | – |
| O=C(CO)N1CCC(c2[nH]nc(-c3ccc(F)cc3)c2-c2ccncn2)CC1 [Example D-8] | – | – | – | 0.18 µM | 85% | 1.3 µM | inhibition in vivo at 1 mg/kg ([2]; 4 hours before LPS challenge): 65% |
| O=C(CO)N1CCC(c2[nH]nc(-c3ccc(C(F)(F)F)cc3)c2-c2ccncn2)CC1 [Example D-9] | – | – | – | 1.63 µM | 86% | 15.8 µM | inhibition in vivo at 1 mg/kg ([2]; 4 hours before LPS challenge): 5% |
| O=C(CO)N1CCC(c2[nH]nc(-c3ccc(OC(F)(F)F)cc3)c2-c2ccncn2)CC1 [Example D-10, N-(2-Hydroxyacetyl)-5-(4-piperidyl)-4-(4-pyrimidyl)-3-(4-trifluoromethoxyphenyl)pyrazole] | – | – | – | 3.95 µM | 80% | 14.8 µM | – |
| O=C(CO)N1CCC(c2[nH]nc(-c3cccc(Cl)c3)c2-c2ccncn2)CC1 [Example D-11, N-(2-Hydroxyacetyl)-5-(4-piperidyl)-4-(4-pyrimidyl)-3-(3-chlorophenyl)pyrazole] | – | – | – | 0.16 µM | 86% | 1.5 µM | inhibition in vivo at 1 mg/kg ([2]; 4 hours before LPS challenge): 43% |
| O=C(CO)N1CCC(c2[nH]nc(-c3cccc(F)c3)c2-c2ccncn2)CC1 [Example D-12, N4(2Hydroxyacetyl)-5-(4-piperidyl)-4-(4-pyrimidyl)-3-(3-fluorophenyl)pyrazole] | – | – | – | 0.82 µM | 91% | 7.06 µM | inhibition in vivo at 1 mg/kg ([2]; 4 hours before LPS challenge): 71% |

Source: patent publication US6525059B1, “Substituted pyrazoles as p38 kinase inhibitors” (G. D. Searle & Company, priority 1998, dated 2003)
